From US11753386B2, “Processes for preparing a MDM2 inhibitor” (Amgen, Inc., priority 2018, dated 2023)

Key:
Format in all cases: physicochemical
[1] = Equilibrium solubility measurements for DHO in various solvents; conditions: thermodynamic from solid, 20° C.
Procedure: Equilibrium solubility measurements were gathered for DHO in various solvents. It was observed that all values obtained were above 20 mg/mL at 20° C. (including heptane) except for water (<0.1 mg/mL), which was thus selected as an anti-solvent. […] Using this protocol, crystalline DHO was isolated in 88% yield from DLAC in a >98 LC area % (Scheme 9).

[2] = Particle size distribution pre and post dry-milling
[3] = Supernatant concentration at end of crystallization; conditions: 20° C.
Procedure: Cooling to 20° C. in 2 hours prompts another 60% of the material to crystallize. Four volumes of heptane are subsequently added to lower the supernatant concentration to approximately 5 mg/mL in preparation for batch filtration.
A curve showing solubility values at different time points in the crystallization process is represented in FIG. 16. […] One volume of water is subsequently added to lower the supernatant concentration to approximately 5 mg/mL in preparation for a rapid batch filtration. Three water washings (3×10 volumes) were conducted to minimize the presence of residual acetic acid in the isolated material.

[4] = Solubility in acetonitrile/water (9/1 volume ratio); conditions: organic solvent or mixture, 10° C.
[5] = milled (Pallman Universal Mill)

C=CC[C@@](C)(C[C@H](c1cccc(Cl)c1)[C@@H](O)c1ccc(Cl)cc1)C1=N[C@@H](C(C)C)CO1 [DHO, (1R,2R,4S)-2-(3-chlorophenyl)-1-(4-chlorophenyl)-4-((S)-4-isopropyl-4,5-dihydrooxazol-2-yl)-4-methylhept-6-en-1-ol]
solubility thermodynamic ([1]; organic solvent or mixture, various solvents (including heptane) except water): > 20 mg/mL
solubility thermodynamic ([1]; water): < 0.1 mg/mL

CC(C)[C@@H](CS(=O)(=O)C(C)C)N1C(=O)[C@@](C)(CC(=O)O)C[C@H](c2cccc(Cl)c2)[C@H]1c1ccc(Cl)cc1 [Compound A, 2-((3R,5R,6S)-5-(3-chlorophenyl)-6-(4-chlorophenyl)-1-((S)-1-(isopropylsulfonyl)-3-methylbutan-2-yl)-3-methyl-2-oxopiperidin-3-yl)acetic acid]
d10 [2, 5]: 3.2 μm
d50 [2, 5]: 19.1 μm
d90 [2, 5]: 43.7 μm
d10 ([2]; unmilled): 14.6 μm
d50 ([2]; unmilled): 42.5 μm
d90 ([2]; unmilled): 102 μm
Supernatant concentration ([3]; acetic acid (6.6 volumes) / water (4.4 + 1 volumes)): approximately 5 mg/mL

CC(C)[C@@H](CS(=O)(=O)C(C)C)N1C(=O)[C@@](C)(CC(=O)O)CC(c2cccc(Cl)c2)C1c1ccc(Cl)cc1 (stereo partly drawn) [Compound 232-DAB]
Supernatant concentration ([3]; isopropyl acetate (4 volumes) / heptane (4 volumes)): approximately 5 mg/mL

CC(C)[C@@H](CS(=O)(=O)C(C)C)N1C(=O)[C@@](C)(CC=O)C[C@H](c2cccc(Cl)c2)C1c1ccc(Cl)cc1 (stereo partly drawn) [ALD]
solubility [4]: 21 mg/mL

C=CC[C@@]1(C)C[C@H](c2cccc(Cl)c2)[C@@H](c2ccc(Cl)cc2)N([C@H](CS(=O)(=O)C(C)C)C(C)C)C1=O [SUL, (3S,5R,6S)-3-allyl-5-(3-chlorophenyl)-6-(4-chlorophenyl)-1-((S)-1-(isopropylsulfonyl)-3-methylbutan-2-yl)-3-methylpiperidin-2-one]
solubility [4]: 25 mg/mL
